Patent publication US6433021B1, “Indane compounds and their pharmaceutical use” (Venantius Limited, priority 1999, dated 2002)

Columns and labels:
[1] = tested on: arachidonic acid-induced ear oedema; assay: Mouse ear oedema model (arachidonic acid-induced acute inflammation); type: in vivo, Laca mice; details: 300 μg per ear topical in acetone, 30 min before arachidonic acid, 1 hour after arachidonic acid
Procedure: Mouse Ear Oedema Model The mouse ear oedema model was performed using Laca mice (25-35 g), of either sex. The animals were sedated with fentanyl/fluanisone (Hypnorn, Janssen). One ear was treated by the topical application of one of a range of test compounds or dexamethasone (all at 300 μg per ear in acetone). After 30 minutes, oedema was induced by the topical application of arachidonic acid (10 μl at 0.4 g/ml in acetone). The width of each ear was measured, both before and 60 minutes after the induction of oedema, using a micrometer screw gauge. Ear oedema was calculated by comparing the ear width before and after induction of oedema and expressed as percentage normal. Values are expressed as the percentage increase in ear thickness 1 hour after administration of archidonic acid and solvent controls (n=6 except Compound IV, n=4). Acute Inflammation—Mouse Ear

mast cells = assay: Histamine release assay (mast cell stabilisation, compound 48/80-induced histamine release); type: cell-based, Female Wistar rats; details: rat peritoneal mast cells, 2×10^−5 M test compound, stimulated with Compound 48/80, n=5, read-out: % inhibition of histamine Release (±S.E.M.)
Procedure: The compounds were assessed for their ability to stabilise mast cell membranes in vitro. Mast cells treated with the compounds and untreated mast cells were stimulated to release histamine. A reduction in histamine release by the treated cells compared to the untreated cells indicates stabilisation of the membranes.
The buffered salt solution (BSS) was prepared in advance (NaCl 137 mM; KCl 2.7 mM; MgCl2 1.0 mM; CaCl2 0.5 mM; NaH2PO4 0.4 mM; Glucose 5.6 mM; HEPES 10 mM). This was dispensed into test tubes and heated to 37° C. each test tube contained 4.5 ml BSS. The solvent blank was supplemented with 0.5% (v/v) dimethyl sulphoxide (DMSO) or 0.5% (v/v) distilled water (dH2O). […]
To 2 ml of supernatent from each tube was added 0.4 ml of 1 M NaOH and 0.1 ml oPT (1% (w/v) in methanol). […] The presence of the fluorescent product of the reaction was measured using a Shimadzu RF-1501 spectrofluorophotometer set at λex=360 nm, λem=450 nm.
Each drug was tested on at least five animals (n=5). The results were expressed as a percentage of maximum inhibition of compound 48/80 induced-histamine release in the solvent blank sample. […] The basal histamine release in untreated cells was noted, expressed as a percentage of the total histamine content of the cells in suspension.

[2] = second set, solvent control 79.6
[3] = first set, solvent control 69.0

O=C(CC1(C2=Cc3ccccc3C2)Cc2ccccc2C1O)c1ccccc1 (stereo not shown) [Compound III, 1-phenyl-2-((2′-iidenyl)-indan-2-ol)ethan-1-one]
Mean % (percentage increase in ear thickness) [1, 2]: 37.3%

O=C(CC1(C2=Cc3ccccc3C2)Cc2ccccc2C1=O)c1ccccc1 (stereo not shown) [Compound I, 1-phenyl-2-((2′-iidenyl)-indan-2-onyl)ethan-1-one]
Mean % (percentage increase in ear thickness) [1, 3]: 49.3%

O=C1c2ccccc2CC1(CC(O)c1ccccc1)C1=Cc2ccccc2C1 (stereo not shown) [Compound IV, 1-phenyl-2-((2′-iidenyl)-indan-2-one)ethan-1-ol]
Mean % (percentage increase in ear thickness) [1, 2]: 13.1%

OC(CC1(C2=Cc3ccccc3C2)Cc2ccccc2C1O)c1ccccc1 (stereo not shown) [Compound II, 1-phenyl-2-((2′-iindenyl)-indan-2-ol)ethan-1-ol]
inhibition at 20 µM (mast cells): 53.5 ± 2.53% | Mean % (percentage increase in ear thickness) [1, 2]: 17.7%

C[C@@H]1C[C@H]2[C@@H]3CCC4=CC(=O)C=C[C@]4(C)[C@@]3(F)[C@@H](O)C[C@]2(C)[C@@]1(O)C(=O)CO [Dexamethasone, reference compound]
Mean % (percentage increase in ear thickness) [1, 3]: 41.6% | Mean % (percentage increase in ear thickness) [1, 2]: 54.0%
